The test has as its system BDF1 mice, M5076 sarcoma ip, median survival T/C. Briefly: NCI In Vivo Anticancer Drug Screen. Data for tumor model Sarcoma M5076 (intraperitoneal) in B6D2F1 (BDF1) mice. To be noted: endpoint: median survival time, higher = longer survival. Here is the method: The antitumor activity of compounds was measured in mice bearing transplantable tumors. Survival or tumor size were measured and the results are expressed as the measurement made in the treated group (T) divided by the measurement made in the vehicle treated control group (C). The tumor model used in this assay is Sarcoma M5076 (intraperitoneal) in B6D2F1 (BDF1) mice

Where “and” joins values, the source holds several entries; their conditions need not be identical. Equal entries are not always repeated. Toxic doses and inconclusive results are not listed. Starred links: 1 amine or outer side, 2 acyl side, 3 side chain; linkers in the order of their positions; H or OH if unused. Positions of bridges follow the written chain, without caps; N, C: chain ends. Non-standard residues stand in square brackets, D forms with d. Residues, ends and D or L forms follow the SMILES beside them. Chains are numbered I, II in the order given. ξ: configuration not given here. *: point of attachment. Quinaldoyl(3-OH,6-OMe) = COc1ccc2nc(C(=O)*)c(O)cc2c1; X2 = CC(=O)OC1CC=NN([*:1])C1C(=O)[*:2]; ξNMeVal(3-OH) = CNC(C(=O)O)C(C)(C)O; X3 = O=C(C1CCCNN1[*:1])[*:2]; Sar = CNCC(=O)O

On to `COC1=C(C)C(=O)C2=C(C1=O)C(CO)N1C(C#N)C3CC4C(C1C2N1CCOC41)N3C` (configuration not stated), for which the T/C (dose: 0.06 mg/kg/injection, schedule: Q01DX009 (ip), vehicle: saline + alcohol) is 116 % of control; the T/C (dose: 0.13 mg/kg/injection, schedule: Q01DX009 (ip), vehicle: saline + alcohol) is 95 % of control; the T/C (dose: 0.25 mg/kg/injection, schedule: Q01DX009 (ip), vehicle: saline + alcohol) was 98 % of control; the T/C (dose: 0.5 mg/kg/injection, schedule: Q01DX009 (ip), vehicle: saline + alcohol) was 103 % of control; the T/C (dose: 1.0 mg/kg/injection, schedule: Q01DX009 (ip), vehicle: saline + alcohol) was 122 % of control; the T/C (dose: 62.5 micrograms/kg/injection, schedule: Q01DX009 (ip), vehicle: acid diluted with saline) is 107 % of control. Also, the T/C by setting is: (dose: 125.0 micrograms/kg/injection, schedule: Q01DX009 (ip), vehicle: acid diluted with saline) 96 % of control; (dose: 250.0 micrograms/kg/injection, schedule: Q01DX009 (ip), vehicle: acid diluted with saline) 96 % of control; (dose: 500.0 micrograms/kg/injection, schedule: Q01DX009 (ip), vehicle: acid diluted with saline) 109 % of control.
For the compound `COc1ccc2nc(C(=O)NC3COC(=O)C(C(C)(C)O)N(C)C(=O)CN(C)C(=O)CNC(=O)C4CCCNN4C(=O)C(NC(=O)c4nc5ccc(OC)cc5cc4O)COC(=O)C(C(C)(C)O)N(C)C(=O)CN(C)C(=O)CNC(=O)C4C(OC(C)=O)CC=NN4C3=O)c(O)cc2c1` (configuration not stated) (I: {Quinaldoyl(3-OH,6-OMe)}-S[X2]G[Sar][ξNMeVal(3-OH)] / II: {Quinaldoyl(3-OH,6-OMe)}-S[X3]G[Sar][ξNMeVal(3-OH)]; ester I:1-II:C, I:C-II:1; configuration not given here), the T/C is, setting by setting: (dose: 10.0 micrograms/kg/injection, schedule: Q01DX009 (ip), vehicle: DMSO) 155 % of control; (dose: 12.5 micrograms/kg/injection, schedule: Q01DX009 (ip), vehicle: DMSO) 157 % of control; (dose: 20.0 micrograms/kg/injection, schedule: Q01DX009 (ip), vehicle: DMSO) 190 % of control; (dose: 25.0 micrograms/kg/injection, schedule: Q01DX009 (ip), vehicle: DMSO) 170 % of control; (dose: 50.0 micrograms/kg/injection, schedule: Q01DX009 (ip), vehicle: DMSO) 179 % of control.
On to `COc1cc2c(cc1OC)C1C(=O)c3ccc4c(c3OC1CO2)CC(C(C)(O)CO)O4` (configuration not stated), for which the T/C (dose: 2.0 mg/kg/injection, schedule: Q01DX009 (ip), vehicle: DMSO) is 110 % of control; the T/C (dose: 4.0 mg/kg/injection, schedule: Q01DX009 (ip), vehicle: DMSO) is 96 % of control; the T/C (dose: 8.0 mg/kg/injection, schedule: Q01DX009 (ip), vehicle: DMSO) is 99 % of control.
For `CN(C)c1nc(N(C)C)nc(N(C)C)n1`, the T/C runs as follows: (dose: 40.0 mg/kg/injection, schedule: Q04DX005 (ip), vehicle: Klucel (hydroxypropylcellulose) (HPC)) 160 % of control; (dose: 80.0 mg/kg/injection, schedule: Q04DX005 (ip), vehicle: Klucel (hydroxypropylcellulose) (HPC)) 188 % of control; (dose: 100.0 mg/kg/injection, schedule: Q04DX005 (ip), vehicle: Klucel (hydroxypropylcellulose) (HPC)) 112 % of control; (dose: 160.0 mg/kg/injection, schedule: Q04DX005 (ip), vehicle: Klucel (hydroxypropylcellulose) (HPC)) 104 % of control; (dose: 200.0 mg/kg/injection, schedule: Q04DX005 (ip), vehicle: Klucel (hydroxypropylcellulose) (HPC)) 119 % of control; (dose: 400.0 mg/kg/injection, schedule: Q04DX005 (ip), vehicle: Klucel (hydroxypropylcellulose) (HPC)) 123 % of control.
In the case of `CC[C@]1(O)C[C@H]2CN(CCc3c([nH]c4ccccc34)[C@@](C(=O)OC)(c3cc4c(cc3OC)N(C=O)[C@H]3[C@@](O)(C(=O)OC)[C@H](OC(C)=O)[C@]5(CC)C=CCN6CC[C@]43[C@@H]65)C2)C1`, the T/C was 112 % of control and 124 % of control (dose: 0.25 mg/kg/injection, schedule: Q04DX005 (ip), vehicle: saline); 164 % of control (dose: 0.5 mg/kg/injection, schedule: Q04DX005 (ip), vehicle: saline); 228 % of control and 156 % of control (dose: 1.0 mg/kg/injection, schedule: Q04DX005 (ip), vehicle: saline).
As to `C=CCOc1cc2c(cc1C(C)c1ccc(OC)cc1)OCO2` (configuration not stated), the T/C runs as follows: (dose: 25.0 mg/kg/injection, schedule: Q04DX004 (ip), vehicle: Klucel (hydroxypropylcellulose) (HPC)) 104 % of control; (dose: 50.0 mg/kg/injection, schedule: Q04DX004 (ip), vehicle: Klucel (hydroxypropylcellulose) (HPC)) 118 % of control; (dose: 100.0 mg/kg/injection, schedule: Q04DX004 (ip), vehicle: Klucel (hydroxypropylcellulose) (HPC)) 102 % of control; (dose: 200.0 mg/kg/injection, schedule: Q04DX004 (ip), vehicle: Klucel (hydroxypropylcellulose) (HPC)) 118 % of control; (dose: 400.0 mg/kg/injection, schedule: Q04DX004 (ip), vehicle: Klucel (hydroxypropylcellulose) (HPC)) 214 % of control.
Regarding `O=C(O)CC(NC(=O)CP(=O)(O)O)C(=O)O` (configuration not stated), the T/C is 164 % of control (dose: 50.0 mg/kg/injection, schedule: Q04DX005 (ip), vehicle: saline); 180 % of control (dose: 100.0 mg/kg/injection, schedule: Q04DX005 (ip), vehicle: saline); 178 % of control (dose: 108.0 mg/kg/injection, schedule: Q04DX004 (ip), vehicle: saline); 195 % of control (dose: 180.0 mg/kg/injection, schedule: Q04DX004 (ip), vehicle: saline); 165 % of control (dose: 200.0 mg/kg/injection, schedule: Q04DX005 (ip), vehicle: saline); 195 % of control (dose: 300.0 mg/kg/injection, schedule: Q04DX004 (ip), vehicle: saline). Further, the T/C (dose: 400.0 mg/kg/injection, schedule: Q04DX005 (ip), vehicle: saline) is 184 % of control and 200 % of control; the T/C (dose: 500.0 mg/kg/injection, schedule: Q04DX004 (ip), vehicle: saline) was 204 % of control; the T/C (dose: 833.0 mg/kg/injection, schedule: Q04DX004 (ip), vehicle: saline) is 216 % of control.
Turning to `CC(/C=N/N=C(N)N)=N\N=C(N)N`, the T/C is 110 % of control (dose: 32.4 mg/kg/injection, schedule: Q04DX005 (ip), vehicle: saline); 96 % of control (dose: 54.0 mg/kg/injection, schedule: Q04DX005 (ip), vehicle: saline); 110 % of control (dose: 90.0 mg/kg/injection, schedule: Q04DX005 (ip), vehicle: saline).
Regarding `C[C@@](O)(/C=C/[C@H]1CC=CC(=O)O1)[C@@H](C[C@@H](O)\C=C/C=C\C=C\CO)OP(=O)(O)O`, the T/C (dose: 1.0 mg/kg/injection, schedule: Q01DX009 (ip), vehicle: water) was 112 % of control; the T/C (dose: 2.0 mg/kg/injection, schedule: Q01DX009 (ip), vehicle: water) is 106 % of control; the T/C (dose: 4.0 mg/kg/injection, schedule: Q01DX009 (ip), vehicle: water) is 98 % of control; the T/C (dose: 8.0 mg/kg/injection, schedule: Q01DX009 (ip), vehicle: water) is 120 % of control.
Turning to `CCC/C=C/C=C/C(=O)OC1/C(=C/C(=O)OC)CC2CC(C(C)O)OC(=O)CC(O)CC3CC(OC(C)=O)C(C)(C)C(O)(CC4C/C(=C/C(=O)OC)CC(/C=C/C(C)(C)C1(O)O2)O4)O3` (configuration not stated), the T/C (dose: 20.0 micrograms/kg/injection, schedule: Q01DX009 (ip), vehicle: saline + Tween-80 + alcohol) is 158 % of control; the T/C (dose: 40.0 micrograms/kg/injection, schedule: Q01DX009 (ip), vehicle: saline + Tween-80 + alcohol) was 168 % of control; the T/C (dose: 80.0 micrograms/kg/injection, schedule: Q01DX009 (ip), vehicle: saline + Tween-80 + alcohol) was 160 % of control.
As for `O=c1n(CC2CO2)c(=O)n(CC2CO2)c(=O)n1CC1CO1` (configuration not stated), the T/C is 191 % of control (dose: 13.0 mg/kg/injection, schedule: Q04DX005 (ip), vehicle: saline); 270 % of control (dose: 21.6 mg/kg/injection, schedule: Q04DX005 (ip), vehicle: saline); 377 % of control (dose: 36.0 mg/kg/injection, schedule: Q04DX005 (ip), vehicle: saline); 377 % of control (dose: 60.0 mg/kg/injection, schedule: Q04DX005 (ip), vehicle: saline).
For the compound `CSC1SCC2C(=O)N(C)C(C(C)C)C(=O)OCC(NC(=O)c3cnc4ccccc4n3)C(=O)NC(C)C(=O)N(C)C1C(=O)N(C)C(C(C)C)C(=O)OCC(NC(=O)c1cnc3ccccc3n1)C(=O)NC(C)C(=O)N2C` (configuration not stated), the T/C (dose: 25.0 micrograms/kg/injection, schedule: Q01DX009 (ip), vehicle: saline with Tween-80) is 157 % of control; the T/C (dose: 50.0 micrograms/kg/injection, schedule: Q01DX009 (ip), vehicle: saline with Tween-80) was 177 % of control; the T/C (dose: 100.0 micrograms/kg/injection, schedule: Q01DX009 (ip), vehicle: saline with Tween-80) was 201 % of control.

The values are drawn from PubChem BioAssay AID286 (DTP/NCI, 2004).
